The values below come from US7511068B2, “Mercaptoimidazoles as CCR2 receptor antagonists” (Janssen Pharmaceutica, N.V., priority 2003, dated 2009).

Each structure is given as a SMILES string.

In this assay the target is T1, CCR2 receptor (Homo sapiens, UniProt P41597).
T1 construct: host or cells: THP-1 human monocytic cell line
T1 sequence (P41597 1-360 isoform P41597-2): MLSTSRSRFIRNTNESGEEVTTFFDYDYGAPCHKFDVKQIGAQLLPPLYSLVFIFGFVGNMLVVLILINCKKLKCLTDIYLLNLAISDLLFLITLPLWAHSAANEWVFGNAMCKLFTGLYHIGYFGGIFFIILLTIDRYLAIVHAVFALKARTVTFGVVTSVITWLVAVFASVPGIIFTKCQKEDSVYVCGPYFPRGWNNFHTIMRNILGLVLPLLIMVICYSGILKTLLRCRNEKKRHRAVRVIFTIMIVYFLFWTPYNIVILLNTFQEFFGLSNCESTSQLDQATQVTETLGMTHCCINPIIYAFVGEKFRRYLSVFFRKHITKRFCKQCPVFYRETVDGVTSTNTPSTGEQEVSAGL
Description: Inhibition of MCP-1 induced Ca-flux in human THP-1 cells. Type of assay: cell-based. The conditions noted are these: inhibition of specific MCP-1 (10^-7 M hMCP-1) induced Ca2+ flux in human THP-1 cells; pIC50 = -log IC50 (molar). The procedure:
C. Pharmacological Example Inhibition of MCP-1 Induced Ca-flux in Human THP-1 Cells
MCP-1 binding to the CCR2 receptor induces a rapid and transient intracellular release of Ca^2+ (secondary messenger) in several cell lines (Charo et al, PNAS 1994). Free Ca^2+ levels can be measured using a Ca^2+ sensitive dye. When the CCR2 receptor is blocked with a CCR2 receptor antagonist, the MCP-1 induced release of Ca^2+ is inhibited.
Human THP-1 cells (monocytic cell line, ATCC TIB-202) were cultured in RPMI 1640 medium supplemented with 10% fetal calf serum (FCS), 1% L-Glutamine, penicillin (50 U/ml) and streptomycin (50 μg/ml) (all GIBCO BRL, Gent). After centrifugation, cells were loaded for 30 minutes with the Ca^2+ sensitive fluorescent dye Fluo-3 AM (Molecular Probes, Leiden, Netherlands) (2 million cells/ml in RPMI medium containing 4 μM Fluo-3 AM, 20 mM HEPES, 0.1% Bovine Serum Albumin (BSA) and 5 mM probenecid). Excess dye was removed by 3-fold washing with buffer (5 mM HEPES, 140 mM NaCl, 1 mM MgCl2, 5 mM KCl, 10 mM glucose, 2.5 mM probenecid, 1.25 mM CaCl2, 0.1% BSA; all further incubations were done in this buffer). Cells were plated at a density of 150 000 cells/well in dark-wall 96-well plates (Costar, Cambridge, Mass.) and sedimented by centrifugation (1 minute). The cells were pre-incubated for 20 minutes with test compound. Then, 10^−7 M hMCP-1 (Bachem, Bubendorf, Switserland) was added. Changes in intracellular free Ca^2+ concentration were measured using the Fluorescent Imaging Plate Reader (FLIPR, Molecular Devices, Munchen, Germany). Fluorescence was recorded every second from 10 seconds before the addition of the MCP-1 till 2 minutes after the addition (first minute: 60 records with 1 second intervals, second minute 20 records with 3 second intervals).
The maximal fluorescence obtained during this time frame was used for further calculations.
Table 4 reports pIC50 values obtained in the above-described test for compounds of formula (I). pIC50 defines −log IC50 wherein IC50 is the molar concentration of the test compound which inhibits 50% of specific MCP-1 induced Ca^2+ flux.
For `CCC(c1cc(F)c(F)c(F)c1)n1c(C(=O)OC)c[nH]c1=S` (stereo not shown) [Compound 135], the IC50 was 4270 nM.

In the case of `CCC(c1ccc(Cl)c(Cl)c1)n1cc(C(=O)OCCO)[nH]c1=S` (stereo not shown) [Compound 63], the IC50 was 1020 nM. For `CCC(c1ccc(F)c(C(F)(F)F)c1)n1c(C(=O)NC)c[nH]c1=S` (stereo not shown) [Compound 49] the value was 2290 nM; for `CCC(c1ccc(C(F)(F)F)c(F)c1)n1c(C(=O)OC)cnc1S` (stereo not shown) [Compound 43], 2000 nM; for `CCC(c1ccc(Cl)c(Cl)c1)n1cc(C(=O)NC)[nH]c1=S` (stereo not shown) [Compound 52], 8130 nM. Next, `CCC(c1ccc(Cl)c(Cl)c1)n1c(C(=O)NC)c(COC)[nH]c1=S` (stereo not shown) [Compound 114]: 1780 nM; `CCC(c1ccc(Br)c(Br)c1)n1c(C(N)=O)c(C(N)=O)[nH]c1=S` (stereo not shown) [Compound 57]: 168 nM. Next, `CCC(c1ccc(Cl)c(Cl)c1)n1c(C(=O)O)cnc1S` (stereo not shown) [Compound 23]: 3310 nM; `CC(c1ccc(Cl)c(Cl)c1)n1c(C(N)=O)c(C(N)=O)[nH]c1=S` (stereo not shown) [Compound 98]: 2040 nM. Compound `CC(c1ccc(Cl)c(Cl)c1)n1cc(C(N)=O)[nH]c1=S` (stereo not shown) [Compound 91] showed an IC50 of 8130 nM.

In the case of `CCCC(c1ccc(Cl)c(Cl)c1)n1c(C(=O)OC)cnc1S` (stereo not shown) [Compound 35], the IC50 was 138 nM.

Compound `CCCCNC(=O)c1cnc(S)n1C(CC)c1ccc(F)c(F)c1` (stereo not shown) [Compound 44] showed an IC50 of 3130 nM. Next, `CCC(c1ccc(Cl)c(Cl)c1)n1c(S)nc(COC)c1C(=O)OC` (stereo not shown) [Compound 89]: 107 nM; `CCC(c1ccc(Cl)c(Cl)c1)n1c(S)nc(C(=O)O)c1C(=O)OC` (stereo not shown) [Compound 68]: 841 nM; `CCC(c1ccc(Cl)cc1)n1c(C(=O)OC)cnc1S` (stereo not shown) [Compound 123]: 4680 nM. For `CCC(c1ccc(F)c(C(F)(F)F)c1)n1c(C(=O)O)c[nH]c1=S` (stereo not shown) [Compound 67] the value was 2340 nM; for `CCC(c1ccc(F)c(F)c1)n1c(C(=O)OC)c(C(=O)OC(C)(C)C)[nH]c1=S` (stereo not shown) [Compound 137], 2510 nM; for `CCC(c1cc(F)cc(F)c1)n1c(C(=O)OC)cnc1S` (stereo not shown) [Compound 118], 8320 nM. Compound `CCC(c1ccc(Cl)c(Cl)c1)n1c(C(=O)NNC(C)=O)c[nH]c1=S` (stereo not shown) [Compound 119] had an IC50 of 871 nM. For `O=c1[nH][nH]c(=O)c2c1[nH]c(=S)n2C(c1ccc(Cl)c(Cl)c1)C1CC1` (stereo not shown) [Compound 77] the value was 331 nM.

The compound `CCC(c1ccc(F)c(F)c1)n1c(C(=O)OC)cnc1S` (stereo not shown) [Compound 21] gave an IC50 of 1020 nM.

The compound `CCC(c1ccc(Cl)c(Cl)c1)n1c(C(=O)NC)cnc1S` (stereo not shown) [Compound 34] showed an IC50 of 219 nM. For `COCC(c1ccc(Cl)c(Cl)c1)n1c(C(=O)OC)c(C(=O)OC)[nH]c1=S` (stereo not shown) [Compound 100] the value was 32.4 nM; for `CCC(c1ccc(Cl)c(Cl)c1)n1c(C(=O)OC)c(C(=O)NCCO)[nH]c1=S` (stereo not shown) [Compound 110], 112 nM; for `CC[C@@H](c1ccc(Cl)c(Cl)c1)n1c(C(=O)OC)cnc1S` [Compound 17], 87.1 nM.

On to `CCC(c1ccc(Cl)c(Cl)c1)n1c(C(N)=O)c(COC)[nH]c1=S` (stereo not shown) [Compound 113], for which 240 nM corresponded to half-maximal inhibition (IC50). Next, `CCC(c1ccc(Cl)c(Cl)c1)n1c(C#N)cnc1S` (stereo not shown) [Compound 7]: 700 nM. For `CCC(c1cc(F)c(F)c(F)c1)n1c(C(=O)OC)c(C(=O)OC)[nH]c1=S` (stereo not shown) [Compound 148] the value was 33.5 nM; for `CC[C@H](c1ccc(Cl)c(Cl)c1)n1c(C(=O)OC)cnc1S` [Compound 16], 1020 nM; for `CCC(c1ccc(Br)c(Br)c1)n1c(C(=O)O)c[nH]c1=S` (stereo not shown) [Compound 74], 3390 nM. In the case of `COCC(c1ccc(Cl)c(Cl)c1)n1c(C(=O)OC)cnc1S` (stereo not shown) [Compound 94], the IC50 is 305 nM. For `CCC(c1cc(Cl)cc(Cl)c1)n1c(C(=O)OC)c(C(=O)OC)[nH]c1=S` (stereo not shown) [Compound 130] the value was 1660 nM; for `CCC(=O)c1c[nH]c(=S)n1C(CC)c1ccc(Cl)c(Cl)c1` (stereo not shown) [Compound 151], 299 nM; for `CCC(c1ccc(F)c(F)c1)n1c(S)nc(C(=O)OC)c1C(=O)OC` (stereo not shown) [Compound 39], 7.24 nM. `CCC(c1ccc(Cl)c(Cl)c1)n1c(C(=O)OC)c(C(=O)N2CCOCC2)[nH]c1=S` (stereo not shown) [Compound 109] showed an IC50 of 1150 nM.

For `CCC(c1ccc(Cl)c(Cl)c1)n1c(C(=O)NNC=O)c[nH]c1=S` (stereo not shown) [Compound 120], the 50% inhibitory concentration (IC50) was 1050 nM. The compound `CCC(c1ccc(F)c(F)c1)n1c(C(N)=O)cnc1S` (stereo not shown) [Compound 9] had an IC50 of 465 nM. Next, `CCC(c1ccc(Cl)c(Cl)c1)n1c(C#N)c(C(=O)OC)[nH]c1=S` (stereo not shown) [Compound 5]: 39.8 nM; `COC(=O)c1[nH]c(=S)n(C(c2ccccc2)c2ccc(Cl)c(Cl)c2)c1C(=O)OC` (stereo not shown) [Compound 56]: 203 nM; `COC(=O)c1c(C(N)=O)[nH]c(=S)n1C(C)c1ccc(Cl)c(Cl)c1` (stereo not shown) [Compound 90]: 133 nM. Next, `CCC(c1ccc(Cl)c(Cl)c1)n1cc(C(N)=O)[nH]c1=S` (stereo not shown) [Compound 51]: 1780 nM. For `COC(=O)c1[nH]c(=S)n(C(C)c2ccc(Cl)c(Cl)c2)c1C(=O)OC` (stereo not shown) [Compound 55] the value was 12.6 nM; for `CCC(c1ccc(F)c(C(F)(F)F)c1)n1c(S)nc(C(=O)OC)c1C(=O)OC` (stereo not shown) [Compound 3], 17.4 nM; for `CCC(c1ccc(Cl)c(Cl)c1)n1c(S)nc(C(=O)NC)c1C(=O)NC` (stereo not shown) [Compound 107], 355 nM. `CCC(c1ccc(Cl)c(Cl)c1)n1c(C(=O)N(C)OC)c[nH]c1=S` (stereo not shown) [Compound 106]: the half-inhibitory concentration (IC50) was 1780 nM. Regarding `COC(=O)c1[nH]c(=S)n(C(c2ccc(Cl)c(Cl)c2)C2CCCCC2)c1C(=O)OC` (stereo not shown) [Compound 73], the IC50 was 440 nM.

For `COC(=O)c1c[nH]c(=S)n1C(c1ccc(Cl)c(Cl)c1)C1CC1` (stereo not shown) [Compound 2], inhibition was half-maximal at 2140 nM (IC50). Next, `CCC(c1ccc(Cl)c(Cl)c1)n1c(C(=O)OC)cnc1S` (stereo not shown) [Compound 15]: 191 nM; `CCC(c1ccc(Cl)c(Cl)c1)n1c(C(N)=O)cnc1S` (stereo not shown) [Compound 59]: 43.4 nM. For `CCC(c1ccc(F)c(F)c1)n1c(C(=O)NCC(C)C)cnc1S` (stereo not shown) [Compound 45] the value was 2480 nM; for `CCC(c1ccc(Cl)c(Cl)c1)n1c(C(=O)NCCO)c[nH]c1=S` (stereo not shown) [Compound 105], 130 nM. Next, `COC(=O)c1cnc(S)n1C(C)(C)c1ccc(Cl)c(Cl)c1` [Compound 80]: 4790 nM. In turn, `COC(=O)c1[nH]c(=S)n(C(c2ccc(Cl)c(Cl)c2)c2ccc(Cl)c(Cl)c2)c1C(=O)OC` [Compound 150] had an IC50 of 468 nM. For `CCC(c1ccc(Cl)c(Cl)c1)n1c(S)nc(C(N)=O)c1C(=O)OC` (stereo not shown) [Compound 86] the value was 49.9 nM. Next, `CCC(c1ccc(Cl)c(Cl)c1)n1c(C(=O)O)c(C(=O)O)[nH]c1=S` (stereo not shown) [Compound 40]: 1380 nM; `CCC(c1ccc(F)c(F)c1)n1c(C(=O)OC)c(C(N)=O)[nH]c1=S` (stereo not shown) [Compound 142]: 58.9 nM; `COC(=O)c1c[nH]c(=S)n1C(C)c1ccc(Cl)cc1` (stereo not shown) [Compound 31]: 3720 nM. Next, `CCCC(c1ccc(Cl)c(Cl)c1)n1c(C(=O)OC)c(C(N)=O)[nH]c1=S` (stereo not shown) [Compound 149]: 32.4 nM.
